Converted amounts (≈) assume the structure as drawn.
Experiments:
M. tuberculosis H37Rv = experiment: in vitro antimycobacterial activity, microdilution panel method; assay type: cell-based, Mycobacterium tuberculosis; details: Mycobacterium tuberculosis, 336 h, Middlebrook 7H9, Alamar Blue after 14 days, read-out: MIC M. tuberculosis
Staphylococcus aureus = experiment: in vitro antibacterial activity, microdilution broth method; assay type: cell-based
Experimental: Microdilution broth method. Antibacterial evaluation was performed against bacterial strains from Czech Collection of Microorganisms (Brno, Czech Republic) (Staphylococcus aureus CCM 4516/08, Escherichia coli CCM 4517, Pseudomonas aeruginosa CCM 1961) or clinical isolates from Department of Clinical Microbiology, University Hospital and Faculty of Medicine in Hradec Králové, Charles University in Prague, Czech Republic (Staphylococcus aureus H 5996/08-methicilin resistant (MRSA), Staphylococcus epidermidis H 6966/08, Enterococcus sp. J 14365/08, Klebsiella pneumoniae D 11750/08, Klebsiella pneumoniae J 14368/08-ESBL positive). All strains were subcultured on Mueller-Hinton agar (MHA) (Difco/Becton Dickinson, Detroit, MI, USA) at 35 °C and maintained on the same medium at 4 °C. The compounds were dissolved in DMSO, and the antibacterial activity was determined in Mueller-Hinton liquid broth (Difco/Becton Dickinson), buffered to pH 7.0. Controls consisted of medium and DMSO alone. […] The standards were neomycin, bacitracin, penicillin G, ciprofloxacin and phenoxymethylpenicilin.

[1] = system: photosystem 2 photosynthetic electron transport (PET) in spinach chloroplasts; experiment: inhibition of photosynthetic electron transport (PET) in spinach chloroplasts (Hill reaction, DCPIP); assay type: biochemical, Spinacia oleracea L.; details: spinach chloroplasts, DCPIP photoreduction; read-out: IC50 (PET-inhibiting activity)
Experimental: Chloroplasts were prepared from spinach (Spinacia oleracea L.) according to Masarovicova and Kralova. The inhibition of photosynthetic electron transport (PET) in spinach chloroplasts was determined spectrophotometrically (Genesys 6, Thermo Electron Scientific Instruments, Madison, WI, USA), using an artificial electron acceptor 2,6-dichlorophenol-indophenol (DCPIP) according to Kralova et al., and the rate of photosynthetic electron transport (PET) was monitored as a photoreduction of DCPIP. The measurements were carried out in phosphate buffer (0.02 mol/L, pH 7.2) containing sucrose (0.4 mol/L), MgCl2 (0.005 mol/L) and NaCl (0.015 mol/L). The chlorophyll content was 30 mg/L in these experiments and the samples were irradiated (~100 W/m^2 with 10 cm distance) with a halogen lamp (250 W) using a 4 cm water filter to prevent warming of the samples (suspension temperature 22 °C). The studied compounds were dissolved in DMSO due to their limited water solubility. […] The inhibitory efficiency of the studied compounds was expressed by IC50 values, i.e., by molar concentration of the compounds causing 50% PET inhibition relative to the untreated control.

[2] = system: aromatic amino acids in spinach chloroplasts; experiment: fluorescence of aromatic amino acids in spinach chloroplasts; assay type: biochemical, Spinacia oleracea L.; details: excitation 275 nm, chlorophyll 10 mg/L
Experimental: The fluorescence emission spectra of aromatic amino acids (AAA) in spinach chloroplasts were recorded on fluorescence spectrophotometer F-2000 (Hitachi, Tokyo, Japan) using excitation wavelength λex = 275 nm for monitoring AAA fluorescence, excitation slit 20 nm and emission slit 10 nm. The samples were kept in the dark for 2 min before measuring. The phosphate buffer used for dilution of the chloroplast suspension was the same as described above. Due to low aqueous solubility the compounds were added to chloroplast suspension in DMSO solution. The DMSO concentration in all samples was the same as in the control (10%). The chlorophyll concentration in chloroplast suspension was 10 mg/L.

[3] = determination of lipophilicity by HPLC (log k); details: HPLC capacity factor, C18 column, MeOH 70% / H2O 30%
Source text: Instrumentation: Agilent Technologies 1200 SL liquid chromatograph with Diode-array Detector SL G1315C (Agilent Technologies Inc., Colorado Springs, CO, USA); pre-column ZORBAX XDB-C18 5 μm, 4 × 4 mm, Part No. 7995118-504 (Agilent Technologies Inc.) and column ZORBAX Eclipse XDB-C18 5 μm, 4.6 × 250 mm, Part No. 7995118-585 (Agilent Technologies Inc.). The separation process was controlled by Agilent ChemStation, version B.04.02 extended by spectral module (Agilent Technologies Inc.). Mobile phase consisted of MeOH (HPLC grade, 70%) and H2O (HPLC-Milli-Q Grade, 30%). Conditions: Flow rate 1.0 mL/min, sample injection volume 20 μL, column temperature 30 °C, detection wavelength 210 nm, monitor wavelength 270 nm. Retention times (tR) were measured in minutes. The dead time of the system (tD) was determined as the retention time of KI methanol solution. Capacity factors k for individual compounds were calculated according to the formula k = (tR − tD)/tD. Log k, calculated from the capacity factor k, is used as the lipophilicity index converted to log scale.

| Compound | MIC (M. tuberculosis H37Rv) [µg/mL] | MIC (Staphylococcus aureus) [µM] | IC50 [1] [µM] | slope of dependence of aromatic amino acid fluorescence intensity (% of control) on compound concentration [2] | log k [3] |
| --- | --- | --- | --- | --- | --- |
| CCCCCCCCNc1nccnc1C(=O)NC [Compound 16, N-Methyl-3-(octylamino)pyrazine-2-carboxamide] | 25 (≈ 94.6 µM) | 250 (≈ 66.1 µg/mL) | 64 | −0.668 | 1.359 |
| CCCCCNC(=O)c1nccnc1NCCCCC [Compound 27, N-Pentyl-3-(pentylamino)pyrazine-2-carboxamide] | > 100 | – | 105 | −0.211 | 1.557 |
